Values joined by “and” are separate entries in the source; they are usually repeats but may differ in a detail not shown here. Equal values may be shown once. “Also recorded” adds a separate entry of the source.
Key:
[1] = tested on: moderate or severe atopic dermatitis; assay: Phase 2a study, efficacy (EASI/mEASI, PP-NRS); format: in vivo, human
Description: PK blood draws assessed systemic exposure.
Fifty (50) subjects, aged 18-65 years, male and female were selected to use either a topical formulation comprising 2% w/w Compound I or a placebo. Pertinent inclusion criteria for the study included: (i) a diagnosis of atopic dermatitis (AD) fulfilled the specified diagnostic criteria of Hanifin and Rajka (Hanifin J M, Rajka G. Diagnostic features of atopic dermatitis. Acta Derm Venereol. Suppl 1980; 92: 44-7, which is hereby incorporated by reference in its entirety); (ii) a 6-month history of AD; (iii) no significant AD flares for 4 weeks prior; (iv) at least 1 lesion measuring […], but not located on the hands, feet, or genitalia; (v) a stable diagnosis of moderate or severe (Investigator's Global Assessment (IGA) score of 3 or 4); (vi) Eczema Area and Severity Index (EASI) score of ≤48; and (vii) have AD affecting 3% to 20% of Body Surface Area (BSA) (not including head, […], soles of feet, groin, and genitalia).
The 50 subjects were randomized into 2% Compound I treatment (n=23) and vehicle treatment (n=25) groups. Two of the subjects were randomized but not treated. Of the allocated subjects, 91% (n=21) of the Compound I treatment group and 72% (n=18) completed the study. The demographics and baseline characteristics of the study subjects is provided below in Table 3.
The topical formulation was applied topically twice per day, approximately 8 to 12 hours apart. Up to 8 mL, 1 mL at a time, is applied to an identified AD target area of the subject and rubbed into said area by the subject to achieve a thin film on the skin. Less than 8 mL may be used if less is required to fully cover the identified AD target area. Subjects document symptoms of AD, such as itching, on a daily basis. Subjects were asked to abstain from washing the treated area within 6 hours after application, minimize sun exposure, refrain from using moisturizers, emollients, and sunscreen on the treatment areas, and refrain from activities that would cause profuse sweating (e.g., exercise) for a period of 6 hours after each application. The study ran 4 weeks. On days 1, 8, and 15, a pharmacokinetic sample (e.g., blood) was collected from each subject about 2 hours after application of the topical formulation. On day 28, the following pharmacokinetic samples were collected: • Subgroup 1: One sample before application and one sample at 0.5 to 2.5 hours post application • Subgroup 2: One sample at 2.5 to 5 hours post application and one sample at least 2 hours later • Subgroup 3: One sample at 5 to 8 hours post application and one sample at least 2 hours later (prior to the subsequent application)
On each of these days 1, 8, 15, and 28, symptoms of AD in each subject were evaluated by EASI score, IGA, PP-NRS, and BSA. Primary efficacy of treatment was measured by a percent change from baseline EASI (EASI at day 1) to EASI at day 28.
Further measurements of efficacy included percent change in EASI between each of days 1, 8, 15, and 28 as well as change from baseline and/or prior evaluation of IGA, AD BSA, and PP-NRS on days 8, 15, and 28; percent of subjects achieving IGA scores of 0 to 1 combined with an improvement of 2 or more points from baseline by day 28; proportion of subjects who achieve 50%, 75%, and 90% improvement in EASI score (compared to baseline).
The primary efficacy endpoint of this trial was the percent change from baseline in the Eczema Area and Severity Index (EASI) score at week 4.

[2] = Phase 2a study, plasma pharmacokinetics; format: in vivo, human
[3] = in vivo
[4] = Phase 2a study, safety (adverse events); settings: for Candida infection: patients with at least one event: BID, N = 23

SMILES: CCOC(=O)c1cnc2[nH]ccc2c1N[C@@H]1CCCN(C(=O)CC#N)C1 [Compound I, ethyl (R)-4-((1-(2-cyanoacetyl)piperidin-3-yl)amino)-1H-pyrrolo[2,3-b]pyridine-5-carboxylate]
- Mean decrease in PP-NRS score relative to baseline ([1]; after one week, 2% BID): 1.72
- Patients achieving 50% improvement in EASI score (EASI 50) ([1]; end of week 1 (day 8), 2% BID): 34.8%
- Patients achieving 75% improvement in EASI score (EASI 75) ([1]; end of week 1 (day 8), 2% BID): 13.0%
- Patients achieving 90% improvement in EASI score (EASI 90) ([1]; end of week 1 (day 8), 2% BID): 4.3%
- Patients achieving 50% improvement in EASI score (EASI 50) ([1]; end of week 2 (day 15), 2% BID): 69.6%
- Patients achieving 75% improvement in EASI score (EASI 75) ([1]; end of week 2 (day 15), 2% BID): 21.7%
- Patients achieving 90% improvement in EASI score (EASI 90) ([1]; end of week 2 (day 15), 2% BID): 8.7%
- Patients achieving 50% improvement in EASI score (EASI 50) ([1]; end of week 4 (day 28), 2% BID): 91.3%
- Patients achieving 75% improvement in EASI score (EASI 75) ([1]; end of week 4 (day 28), 2% BID): 65.2%
- Patients achieving 90% improvement in EASI score (EASI 90) ([1]; end of week 4 (day 28), 2% BID): 30.4%
- Reduction in mean mEASI score from baseline ([1]; week 4 (day 28), 2.0% topical solution BID, FAS N=23, primary endpoint): 74.4% and 74.5%
- Plasma Compound I CONC ([2]; subject 004-0002, Day 8, hour 0 Predose): 0.188 ng/mL
- Plasma Compound I CONC ([2]; subject 004-0002, Day 15, hour 0 Predose): 0.100 ng/mL
- Plasma Compound I CONC ([2]; subject 004-0004, Day 15, hour 0 Predose, LLOQ 0.100): <LLOQ
- Plasma Compound I CONC ([2]; subject 004-0008, Day 1, hour 0 Predose, LLOQ 0.100): <LLOQ
- Plasma Compound I CONC ([2]; subject 012-0001, Day 8, hour 0 Predose): 1.43 ng/mL
- Plasma Compound I CONC ([2]; subject 13-0001, Day 15, hour 0 Predose): 0.598 ng/mL
- Application site irritation: patients with at least one event ([3]; human): 0
- Oropharyngeal pain: patients with at least one event ([3]; human): 0
- Pharyngitis streptococcal: patients with at least one event ([3]; human): 0
- Rash: patients with at least one event ([3]; human): 0
- SARS-CoV-2 test positive: patients with at least one event ([3]; human): 0
- Sinus congestion: patients with at least one event ([3]; human): 0
- Skin fragility: patients with at least one event ([3]; human): 0
- Somnolence: patients with at least one event ([3]; human): 0
- COVID-19: patients with at least one event ([3]; human, 4 weeks): 0
- Related TEAE, last figure of the cell (number of events) ([3]; human, 4 weeks): 1
- Severe TEAE, last figure of the cell (number of events) ([3]; human, 4 weeks): 2
- Subjects reporting AEs ([3]; human, 4 weeks): 9/23
- Subjects with at least one SAE ([3]; human, 4 weeks): 0
- Subjects with at least one TEAE leading to discontinuation of study drug ([3]; human, 4 weeks): 0
- Subjects with at least one TEAE, number (percent) ([3]; human, 4 weeks): 9 (39.1)
- Subjects with at least one related TEAE, number (percent) ([3]; human, 4 weeks): 1 (4.3)
- Subjects with at least one severe TEAE, number (percent) ([3]; human, 4 weeks): 2 (8.7)
- TEAE, last figure of the cell (number of events, agrees with Table 7) ([3]; human, 4 weeks): 16
- Severe adverse events [3]: Two unrelated severe events (AF and elevated CPK)
- Thrombosis [3]: no reports of thrombosis
- Tolerability [3]: generally well tolerated
- Deaths / serious adverse events ([4]; 4 weeks BID): No deaths or SAEs were reported; also recorded: No serious adverse events were reported
- Candida infection: patients with at least one event ([4]; Mild): 0
- Candida infection: patients with at least one event ([4]; Moderate): 1 (4.3)
- Candida infection: patients with at least one event ([4]; Severe): 0

From patent US20240139170A1, “TOPICAL FORMULATIONS OF A JAK 1/3 INHIBITOR AND METHODS OF USE THEREOF FOR TREATMENT OF ATOPIC DERMATITIS AND OTHER SKIN CONDITIONS” (ACLARIS THERAPEUTICS, INC., priority 2021, published 2024)
